{
  "source": "patent US20240083933A1",
  "about": "“DISACCHARIDES FOR TREATING BONE DISEASES” (UNIVERSITE DE PICARDIE JULES VERNE, priority 2020, published 2024)",
  "system": "HOb cells",
  "assay": "Cytotoxicity, WST-1 test",
  "assay_type": "cell-based, human",
  "settings": "30 μM, culture or mineralizing medium, D2, D4, D7, D14",
  "protocol": "The toxicity of DP2 has also been studied by another cell viability test: WST-1 (a tetrazolium salt). The HOb cells were seeded in 48-well plates (10,000 cells per well), two days later, the cells were treated with DP2 30 μM and the WST-1 test was carried out on D2, D4, D7 and D14 post-treatment.\nAt the end of the treatment, 100 μl of the diluted WST-1 solution (Roche Diagnostics) was added to each well and the plate is incubated at 37° C. with 5% CO2 for 1 h. The cell proliferation induces an increase in the activity of mitochondrial dehydrogenases, which cleaves the tetrazolium salt into formazan. The amount of formazan dye was quantified by measuring the absorbance of dye at 450 nm (Envision, PerkinElmer). The results are expressed as percentage of viability in comparison to the untreated control condition.\nBefore determining whether our molecule alters the survival of osteoblastic cells, its cytotoxicity was tested on the HOb cells by the MTT and WST-1 tests. The cells were treated with DP2 at 30 μM with the culture medium (Ctrl) or the mineralizing medium (Min) for 2, 4, 7 and 14 days (D).",
  "data": [
    {"smiles": "CCCO[C@H]1OC(CO)[C@@H](O[C@@H]2OC(CO)[C@@H](O)C(O)C2NC(C)=O)C(O)C1OC(C)=O", "note": "(stereo partly drawn) [DP2, n-propyl, 2-O-acetyl-α-D-Glucopyranoside, 4-O-(2-acetamido-2-deoxy-β-D-glucopyranosyl)]", "values": [
      {"measurement": "cell viability, WST-1 test", "result": "no significant difference"}
    ]}
  ]
}
